Assay results as given in patent publication US9181266B2, “2-piperidin-1-yl-acetamide compounds for use as tankyrase inhibitors” (NOVARTIS AG, priority 2011, dated 2015).

Legend:
[1] = tested on: Herpes Simplex Virus (HSV); details: cited from earlier work
[2] = tested on: Wnt ligand-induced signaling in HEK293 cells; experiment: Wnt-responsive Super-TOpFlash (STF) luciferase reporter gene assay; format: cell-based; details: Homo sapiens, Wnt3A condition medium
Method in brief: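 HEK293 cells (8000/well, 5% FBS medium) treated with 20% mouse L-cell Wnt3A conditioned medium plus compounds in 10-point serial dilution; luciferase read next day. Inhibition calculated relative to Wnt3A-induced signal without compound and background without Wnt3A CM or compound.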

[3] = tested on: Non-small lung cancer ABC-1 cells; experiment: Cellular proliferation assay (CellTiter-Glo); format: cell-based; details: Homo sapiens, 72 h; ABC-1 cells, 3 days of compound treatment; read-out: ABC-1 IC50
Protocol: Cellular Proliferation Assay to Determine Compound Inhibition of Cancer Cell Growth
Viable cells were measured after 3 days of compound treatment using the CellTiter-Glo assay (Promega, G7570). Assay was performed following the manufacture protocol.

[4] = target: human tankyrase 1 PARP catalytic domain, TNKS1P (Homo sapiens (Human), UniProt O95271); experiment: TNKS1 autoparsylation assay (LC/MS detection of nicotinamide); details: read-out: TNKS1 AP IC50, 20 nM enzyme, 250 μM β-NAD+, 60 min
Protocol: Biochemical Assay to Determine Compound Inhibition of TNKS Enzyme Activity
The autoparsylation activity of the TNKS 1/2 or PARP1/2 enzymes was measured by the liquid chromatography-mass spectrometry (LC/MS) detection of nicotinamide as readout. Compound activity in inhibiting the TNKS and PARP autoparsylation was evaluated by IC50 measurements. […] For the background control wells, 10 μL of the 5× quenching solution per well was added prior to the addition of β-NAD^+. The % Inhibition was calculated as: (Control−Sample)/(Control−Background)*100.

Human PARP1 = Human PARP1 (Homo sapiens (Human), UniProt P09874); experiment: PARP1 autoparsylation assay (LC/MS detection of nicotinamide); format: biochemical; details: 20 nM enzyme, 250 μM β-NAD+, 60 min
Protocol: (§1) The autoparsylation activity of the TNKS 1/2 or PARP1/2 enzymes was measured by the liquid chromatography-mass spectrometry (LC/MS) detection of nicotinamide as readout. Compound activity in inhibiting the TNKS and PARP autoparsylation was evaluated by IC50 measurements.

PARP2 = PARP2 (Mus musculus (Mouse), UniProt O88554); experiment: PARP2 autoparsylation assay (LC/MS detection of nicotinamide); format: biochemical; details: 20 nM enzyme, 250 μM β-NAD+, 60 min
Protocol: as §1

[5] = tested on: Axin2 protein in SW480 cells; experiment: Cellular ELISA assay of Axin2 protein stabilization; format: cell-based; details: Homo sapiens, 24 hrs, read-out: Axin AC50
Method in brief: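 SW480 colorectal cells seeded overnight, treated with compound, then lysed. Axin2 in lysates measured by sandwich ELISA: anti-Axin2 capture antibody coated at 1 μg/ml (pH 9.2), lysate 2 h at room temperature, biotinylated anti-Axin2 detection 2 h, then streptavidin-HRP 30 min.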

[6] = target: tankyrase 2 protein PARP domain, TNKS2P (Homo sapiens (Human), UniProt Q9H2K2); experiment: TNKS2 autoparsylation assay (LC/MS detection of nicotinamide); details: read-out: TNKS2 AP IC50, 20 nM enzyme, 250 μM β-NAD+, 60 min
Sequence of tankyrase 2 protein PARP domain, TNKS2P (Q9H2K2 959-1164): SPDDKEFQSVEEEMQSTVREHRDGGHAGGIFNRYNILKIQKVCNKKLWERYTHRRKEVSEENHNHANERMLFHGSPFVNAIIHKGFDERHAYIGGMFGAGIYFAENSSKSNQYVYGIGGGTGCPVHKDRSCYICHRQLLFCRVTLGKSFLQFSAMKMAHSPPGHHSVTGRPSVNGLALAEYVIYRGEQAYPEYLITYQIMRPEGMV

Sequence of human tankyrase 1 PARP catalytic domain, TNKS1P (O95271 1112-1317): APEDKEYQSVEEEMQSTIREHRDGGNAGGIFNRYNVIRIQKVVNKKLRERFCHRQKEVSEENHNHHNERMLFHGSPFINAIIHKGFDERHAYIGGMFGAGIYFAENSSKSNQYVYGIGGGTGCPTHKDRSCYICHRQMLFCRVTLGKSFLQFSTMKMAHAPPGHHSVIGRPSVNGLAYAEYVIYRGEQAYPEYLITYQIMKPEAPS
Sequence of PARP2 (O88554 whole entry): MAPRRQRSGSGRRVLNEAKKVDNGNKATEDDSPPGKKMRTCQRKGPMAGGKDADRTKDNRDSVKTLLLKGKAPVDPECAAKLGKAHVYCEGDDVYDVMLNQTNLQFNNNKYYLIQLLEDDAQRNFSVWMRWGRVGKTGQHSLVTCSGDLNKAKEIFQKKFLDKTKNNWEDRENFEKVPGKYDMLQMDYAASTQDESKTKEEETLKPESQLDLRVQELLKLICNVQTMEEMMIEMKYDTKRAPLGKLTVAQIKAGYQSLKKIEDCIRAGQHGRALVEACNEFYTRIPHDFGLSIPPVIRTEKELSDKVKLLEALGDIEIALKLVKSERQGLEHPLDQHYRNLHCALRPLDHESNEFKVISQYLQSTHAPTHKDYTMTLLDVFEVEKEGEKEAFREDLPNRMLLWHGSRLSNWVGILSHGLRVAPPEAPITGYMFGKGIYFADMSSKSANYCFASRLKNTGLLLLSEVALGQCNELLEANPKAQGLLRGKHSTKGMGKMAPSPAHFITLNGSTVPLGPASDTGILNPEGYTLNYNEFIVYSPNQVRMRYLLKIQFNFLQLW
Sequence of Human PARP1 (P09874 whole entry): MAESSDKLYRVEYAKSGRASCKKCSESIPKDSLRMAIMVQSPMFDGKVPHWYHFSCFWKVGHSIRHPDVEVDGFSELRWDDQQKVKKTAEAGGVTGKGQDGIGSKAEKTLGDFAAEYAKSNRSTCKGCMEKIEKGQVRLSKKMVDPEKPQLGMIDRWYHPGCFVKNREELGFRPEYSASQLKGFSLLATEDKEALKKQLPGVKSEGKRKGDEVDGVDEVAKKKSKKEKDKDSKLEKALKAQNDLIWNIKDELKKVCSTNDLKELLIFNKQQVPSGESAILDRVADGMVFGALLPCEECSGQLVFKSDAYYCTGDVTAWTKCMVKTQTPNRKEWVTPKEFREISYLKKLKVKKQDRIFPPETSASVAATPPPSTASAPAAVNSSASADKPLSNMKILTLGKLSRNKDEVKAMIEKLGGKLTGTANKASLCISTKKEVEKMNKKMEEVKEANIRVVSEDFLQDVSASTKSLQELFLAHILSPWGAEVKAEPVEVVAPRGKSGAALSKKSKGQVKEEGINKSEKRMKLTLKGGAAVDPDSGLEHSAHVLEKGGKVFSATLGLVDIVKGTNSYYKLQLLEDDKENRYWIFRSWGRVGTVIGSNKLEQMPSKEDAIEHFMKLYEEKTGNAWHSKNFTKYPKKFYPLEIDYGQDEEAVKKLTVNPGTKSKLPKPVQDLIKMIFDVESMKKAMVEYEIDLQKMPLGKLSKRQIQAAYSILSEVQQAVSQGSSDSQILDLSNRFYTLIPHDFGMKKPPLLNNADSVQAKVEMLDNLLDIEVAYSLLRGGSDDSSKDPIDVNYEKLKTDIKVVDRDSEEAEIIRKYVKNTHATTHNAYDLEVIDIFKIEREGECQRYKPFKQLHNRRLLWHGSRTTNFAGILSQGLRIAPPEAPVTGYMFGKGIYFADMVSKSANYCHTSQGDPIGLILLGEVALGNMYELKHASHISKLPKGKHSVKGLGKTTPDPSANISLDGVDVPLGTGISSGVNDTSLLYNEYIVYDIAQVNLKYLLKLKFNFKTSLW

IC50 [3] [µM]	IC50 [4] [µM]	IC50 (Human PARP1) [µM]	IC50 (PARP2) [µM]	IC50 [6] [µM]	Structure (SMILES)	HSV viral growth [1]	HSV viral protein expression [1]	IC50 [2] [µM]	AC50 [5] [µM]
					Oc1nc(-c2ccc(C(F)(F)F)cc2)nc2c1CSCC2 [XAV939]	decreased viral growth	suppressed HSV viral protein expression		
2.01	0.029 ± 0.002	14.7 ± 4.6	> 19	0.015 ± 0.002	CC#CCOc1ccc(C(=O)C2CCN(CC(=O)N(Cc3nc4c(c(=O)[nH]3)COCC4)CC3CC3)CC2)cc1 [Example 78, 2-[4-(4-But-2-ynyloxy-benzoyl)-piperidin-1-yl]-N-cyclopropylmethyl-N-(4-oxo-3,5,7,8-tetrahydro-4H-pyrano[4,3-d]pyrimidin-2-ylmethyl)-acetamide]			0.155 ± 0.008	1.92 ± 0.24
0.034	0.023 ± 0.002	4.5 ± 0.58	1.97 ± 0.26	0.01 ± 0.002	O=C(CN1CCC(C(=O)c2ccc(OCC3CC3)cc2)CC1)NCc1nc2c(c(=O)[nH]1)COCC2 [Example 85, 2-[4-(4-Cyclopropylmethoxy-benzoyl)-piperidin-1-yl]-N-(4-oxo-3,5,7,8-tetrahydro-4H-pyrano[4,3-d]pyrimidin-2-ylmethyl)-acetamide]			0.0052 ± 0.0001	0.015 ± 0.002
0.393	0.037 ± 0.002	9.1 ± 1	2.59 ± 0.29	0.007	O=C(CN1CCC(C(=O)c2ccc(Cl)cc2)CC1)NCc1nc2c(c(=O)[nH]1)COCC2 [Example 2, 2-[4-(4-Chloro-benzoyl)-piperidin-1-yl]-N-(4-oxo-3,5,7,8-tetrahydro-4H-pyrano[4,3-d]-pyrimidin-2-ylmethyl)-acetamide]			0.01 ± 0.002	0.205 ± 0.061
0.301	0.023 ± 0.005	4.8 ± 0.25	2.13 ± 0.44	0.013 ± 0.002	CCCOc1ccc(C(=O)C2CCN(CC(=O)NCc3nc4c(c(=O)[nH]3)COCC4)CC2)cc1 [Example 84, N-(4-Oxo-3,5,7,8-tetrahydro-4H-pyrano[4,3-d]pyrimidin-2-ylmethyl)2-[4-(4-propoxy-benzoyl)-piperidin-1-yl]acetamide]			0.011 ± 0.003	0.162 ± 0.019
0.032	0.067 ± 0.004	5.8 ± 1.3	2.84 ± 0.33	0.029	O=C(CN1CCC(C(=O)c2ccc(OC3CCOCC3)cc2)CC1)NCc1nc2c(c(=O)[nH]1)COCC2 [Example 87, N-(4-Oxo-3,5,7,8-tetrahydro-4H-pyrano[4,3-d]pyrimidin-2-ylmethyl)-2-{4-[4-(tetrahydro-pyran-4-yloxy)-benzoyl]-1-yl}-acetamide]			0.014 ± 0.001	0.04 ± 0.006
0.393	0.055 ± 0.003	2.7 ± 0.8	0.7 ± 0.08	0.036 ± 0.002	O=C(CN1CCC(C(=O)c2ccc(F)cc2)CC1)NCc1nc2c(c(=O)[nH]1)CCCC2 [Example 10, 2-(4-(4-Fluorobenzoyl)piperidin-1-yl)-N-((4-oxo-3,4,5,6,7,8-hexahydroquinazolin-2-yl)methyl)acetamide]			0.027 ± 0.015	0.479 ± 0.024

Structure (SMILES)	IC50 [3] [µM]	IC50 [4] [µM]	IC50 (Human PARP1) [µM]	IC50 (PARP2) [µM]	IC50 [6] [µM]	HSV viral growth [1]	HSV viral protein expression [1]	IC50 [2] [µM]	AC50 [5] [µM]
C[C@H](C1CC1)N(Cc1nc2c(c(=O)[nH]1)COCC2)C(=O)CN1CCC(C(=O)c2ccc(F)cc2)CC1 [Example 41, (R)—N-(1-Cyclopropylethyl)-2-(4-(4-fluorobenzoyl)piperidin-1-yl)-N-((4-oxo-4,5,7,8-tetrahydro-3H-pyrano[4,3-d]pyrimidin-2-yl)methyl)acetamide]	0.476	0.016 ± 0.001	> 19	> 19	0.032 ± 0.001			0.032 ± 0.0014	0.72 ± 0.15
O=C(c1ccc(F)cc1)C1CCN(CC(=O)N(Cc2nc3c(c(=O)[nH]2)COCC3)CC(F)F)CC1 [Example 45, N-(2,2-Difluoro-ethyl)-2-[4-(4-fluoro-benzoyl)-piperidin-1-yl]-N-(4-oxo-3,5,7,8-tetrahydro-4H-pyrano[4,3-d]pyrimidin-2-ylmethyl)-acetamide]	0.509 ± 0.047	0.037 ± 0.017	> 19	> 19	0.0102 ± 0.0074			0.016 ± 0.009	0.45 ± 0.09
COCCN(Cc1nc2c(c(=O)[nH]1)COCC2)C(=O)CN1CCC(C(=O)c2ccc(OC)cc2)CC1 [Example 54, 2-[4-(4-Methoxy-benzoyl)-piperidin-1-yl]-N-(2-methoxy-ethyl)-N-(4-oxo-3,5,7,8-tetrahydro-4H-pyrano[4,3-d]pyrimidin-2-ylmethyl)-acetamide]	1.84	0.035 ± 0.006	> 19	> 19	0.014 ± 0.003			0.091 ± 0.013	1.2 ± 0.1
CC(C)(C)CN(Cc1nc2c(c(=O)[nH]1)COCC2)C(=O)CN1CCC(C(=O)c2ccc(F)cc2)CC1 [Example 14, 2-(4-(4-Fluorobenzoyl)piperidin-1-yl)-N-neopentyl-N-((4-oxo-4,5,7,8-tetrahydro-3H-pyrano[4,3-d]pyrimidin-2-yl)methyl)acetamide]	0.27	0.06 ± 0.007	> 19	> 19	0.02 ± 0.001			0.049 ± 0.023	0.501 ± 0.029
